Earlier results in patent publication US6346264B1, “Supplement for restoring growth hormone levels” (International Health Products and Services Ltd., priority 1999, dated 2002).
Where two headings read alike, the source gives them in different places.

Tests used:
[1] = after six months of usage, without exercise
[2] = 6 months, growth hormone deficient patients
[3] = 4 months, deficient adults
[4] = tested on: hGH release; conditions: low doses in the region of 200 mg (Matteini)
[5] = 202 patients, age 39-74, hGH injection

Compound	increase in healing capacity [5]	individuals describing improvement in duration of penile erection [5]	individuals describing increase and improvement in sexual potency and frequency of sexual relations [5]	individuals with improved energy levels [5]	individuals with improved muscle strength [5]	IGF-1 levels (high frequency-low dose injections)	average increase in lean muscle mass [1]	loss of fat [1]	Insulin-like Growth Factor 1 (IGF-1) [2]	fat [2]	lean body mass [2]	metabolic rate [2]	plasma cholesterol [2]	IGF-1 levels [3]	fat [3]	muscle thickness [3]	renal plasma flow and glomerular filtration rates [3]	hGH release [4]
hGH: human growth hormone, medical name Somatotropin, produced in the anterior pituitary gland; available as injectable bio-synthetic product	71%	62%	75%	84%	88%	elevated	8%	14.4%	increase	reduction	increase	increased	lowered	normalized	reduced	increased	raised from subnormal levels to levels comparable for their age	
N=C(N)NCCC[C@H](N)C(=O)O [arginine]																		can elevate hGH release
